# Laboratory results published in ChEMBL document CHEMBL4627335, “Lead discovery, chemical optimization, and biological evaluation studies of novel histone methyltransferase SET7 small-molecule inhibitors” (Bioorg Med Chem Lett, 2020).
# Activity calls are given as the source filed them. No cut-off for these calls is given here.
# Tests used:
# [1] = target: T1, Histone-lysine N-methyltransferase SETD7 (Homo sapiens, UniProt Q8WTS6); experiment: Inhibition of SET7 (unknown origin) using biotinylated histone polypeptide as substrate in presence of SAM by AlphaLISA assay
# T1 sequence (Q8WTS6 whole entry): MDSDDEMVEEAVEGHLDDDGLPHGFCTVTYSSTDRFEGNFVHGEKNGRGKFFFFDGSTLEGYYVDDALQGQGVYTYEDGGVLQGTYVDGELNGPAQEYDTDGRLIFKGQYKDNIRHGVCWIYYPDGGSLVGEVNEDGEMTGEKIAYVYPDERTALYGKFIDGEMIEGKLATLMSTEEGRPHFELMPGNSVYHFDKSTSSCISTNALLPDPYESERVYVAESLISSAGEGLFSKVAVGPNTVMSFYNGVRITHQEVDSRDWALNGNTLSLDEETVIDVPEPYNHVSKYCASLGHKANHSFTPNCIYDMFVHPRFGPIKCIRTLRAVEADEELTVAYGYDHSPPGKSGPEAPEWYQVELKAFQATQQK
# [2] = target: T2, Histone-lysine N-methyltransferase EHMT2 (Homo sapiens) (UniProt Q96KQ7); experiment: Inhibition of G9a (unknown origin) at 100 uM
# T2 sequence (whole entry): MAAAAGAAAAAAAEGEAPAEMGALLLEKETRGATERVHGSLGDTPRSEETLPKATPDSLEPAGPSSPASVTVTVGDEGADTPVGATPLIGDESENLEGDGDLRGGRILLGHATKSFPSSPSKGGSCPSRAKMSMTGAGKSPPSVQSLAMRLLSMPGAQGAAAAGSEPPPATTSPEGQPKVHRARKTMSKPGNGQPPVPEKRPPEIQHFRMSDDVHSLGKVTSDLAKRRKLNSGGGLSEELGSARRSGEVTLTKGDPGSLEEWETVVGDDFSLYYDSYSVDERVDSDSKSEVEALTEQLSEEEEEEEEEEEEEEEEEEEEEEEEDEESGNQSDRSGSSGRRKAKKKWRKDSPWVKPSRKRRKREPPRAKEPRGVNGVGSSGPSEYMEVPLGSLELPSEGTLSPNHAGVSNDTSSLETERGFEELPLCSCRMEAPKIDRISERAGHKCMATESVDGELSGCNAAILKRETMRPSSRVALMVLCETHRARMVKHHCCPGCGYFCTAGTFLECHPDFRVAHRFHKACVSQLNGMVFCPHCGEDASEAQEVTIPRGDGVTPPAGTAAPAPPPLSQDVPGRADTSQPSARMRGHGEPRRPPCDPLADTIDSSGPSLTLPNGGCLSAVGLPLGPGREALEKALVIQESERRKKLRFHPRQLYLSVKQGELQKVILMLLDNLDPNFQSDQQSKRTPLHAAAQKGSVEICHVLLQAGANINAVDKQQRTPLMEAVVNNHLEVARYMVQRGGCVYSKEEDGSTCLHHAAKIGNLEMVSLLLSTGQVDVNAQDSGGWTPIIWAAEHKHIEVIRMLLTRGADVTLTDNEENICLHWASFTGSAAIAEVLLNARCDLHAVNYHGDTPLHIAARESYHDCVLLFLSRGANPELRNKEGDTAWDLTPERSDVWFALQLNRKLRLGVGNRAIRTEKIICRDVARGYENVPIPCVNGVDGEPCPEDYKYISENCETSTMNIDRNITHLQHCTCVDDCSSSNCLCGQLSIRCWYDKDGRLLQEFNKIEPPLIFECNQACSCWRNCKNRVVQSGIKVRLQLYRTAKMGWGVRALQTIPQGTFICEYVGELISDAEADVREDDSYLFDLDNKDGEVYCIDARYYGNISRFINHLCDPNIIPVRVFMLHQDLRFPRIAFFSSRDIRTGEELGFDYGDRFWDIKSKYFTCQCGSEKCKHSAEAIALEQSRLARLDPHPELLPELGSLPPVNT
# [3] = target: T3, Histone acetyltransferase KAT8 (Homo sapiens) (UniProt Q9H7Z6); experiment: Inhibition of MOF (unknown origin) at 100 uM
# T3 sequence (whole entry): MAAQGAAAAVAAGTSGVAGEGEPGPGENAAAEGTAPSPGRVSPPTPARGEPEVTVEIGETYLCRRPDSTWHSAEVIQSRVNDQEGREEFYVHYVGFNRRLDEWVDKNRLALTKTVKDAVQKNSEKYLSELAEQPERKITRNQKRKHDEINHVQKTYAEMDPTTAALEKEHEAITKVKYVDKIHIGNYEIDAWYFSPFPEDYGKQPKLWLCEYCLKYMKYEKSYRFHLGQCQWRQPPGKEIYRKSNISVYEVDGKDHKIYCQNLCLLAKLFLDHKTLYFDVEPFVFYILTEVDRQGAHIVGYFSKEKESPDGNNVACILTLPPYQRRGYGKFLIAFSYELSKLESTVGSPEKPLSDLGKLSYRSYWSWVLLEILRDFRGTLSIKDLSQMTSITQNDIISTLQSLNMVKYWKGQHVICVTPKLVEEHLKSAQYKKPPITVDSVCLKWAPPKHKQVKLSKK
# [4] = target: Histone-lysine N-methyltransferase, H3 lysine-36 specific (Homo sapiens) (UniProt Q96L73); experiment: Inhibition of NSD1 (unknown origin) at 100 uM
# Histone-lysine N-methyltransferase, H3 lysine-36 specific (Homo sapiens), sequence (Q96L73 whole entry): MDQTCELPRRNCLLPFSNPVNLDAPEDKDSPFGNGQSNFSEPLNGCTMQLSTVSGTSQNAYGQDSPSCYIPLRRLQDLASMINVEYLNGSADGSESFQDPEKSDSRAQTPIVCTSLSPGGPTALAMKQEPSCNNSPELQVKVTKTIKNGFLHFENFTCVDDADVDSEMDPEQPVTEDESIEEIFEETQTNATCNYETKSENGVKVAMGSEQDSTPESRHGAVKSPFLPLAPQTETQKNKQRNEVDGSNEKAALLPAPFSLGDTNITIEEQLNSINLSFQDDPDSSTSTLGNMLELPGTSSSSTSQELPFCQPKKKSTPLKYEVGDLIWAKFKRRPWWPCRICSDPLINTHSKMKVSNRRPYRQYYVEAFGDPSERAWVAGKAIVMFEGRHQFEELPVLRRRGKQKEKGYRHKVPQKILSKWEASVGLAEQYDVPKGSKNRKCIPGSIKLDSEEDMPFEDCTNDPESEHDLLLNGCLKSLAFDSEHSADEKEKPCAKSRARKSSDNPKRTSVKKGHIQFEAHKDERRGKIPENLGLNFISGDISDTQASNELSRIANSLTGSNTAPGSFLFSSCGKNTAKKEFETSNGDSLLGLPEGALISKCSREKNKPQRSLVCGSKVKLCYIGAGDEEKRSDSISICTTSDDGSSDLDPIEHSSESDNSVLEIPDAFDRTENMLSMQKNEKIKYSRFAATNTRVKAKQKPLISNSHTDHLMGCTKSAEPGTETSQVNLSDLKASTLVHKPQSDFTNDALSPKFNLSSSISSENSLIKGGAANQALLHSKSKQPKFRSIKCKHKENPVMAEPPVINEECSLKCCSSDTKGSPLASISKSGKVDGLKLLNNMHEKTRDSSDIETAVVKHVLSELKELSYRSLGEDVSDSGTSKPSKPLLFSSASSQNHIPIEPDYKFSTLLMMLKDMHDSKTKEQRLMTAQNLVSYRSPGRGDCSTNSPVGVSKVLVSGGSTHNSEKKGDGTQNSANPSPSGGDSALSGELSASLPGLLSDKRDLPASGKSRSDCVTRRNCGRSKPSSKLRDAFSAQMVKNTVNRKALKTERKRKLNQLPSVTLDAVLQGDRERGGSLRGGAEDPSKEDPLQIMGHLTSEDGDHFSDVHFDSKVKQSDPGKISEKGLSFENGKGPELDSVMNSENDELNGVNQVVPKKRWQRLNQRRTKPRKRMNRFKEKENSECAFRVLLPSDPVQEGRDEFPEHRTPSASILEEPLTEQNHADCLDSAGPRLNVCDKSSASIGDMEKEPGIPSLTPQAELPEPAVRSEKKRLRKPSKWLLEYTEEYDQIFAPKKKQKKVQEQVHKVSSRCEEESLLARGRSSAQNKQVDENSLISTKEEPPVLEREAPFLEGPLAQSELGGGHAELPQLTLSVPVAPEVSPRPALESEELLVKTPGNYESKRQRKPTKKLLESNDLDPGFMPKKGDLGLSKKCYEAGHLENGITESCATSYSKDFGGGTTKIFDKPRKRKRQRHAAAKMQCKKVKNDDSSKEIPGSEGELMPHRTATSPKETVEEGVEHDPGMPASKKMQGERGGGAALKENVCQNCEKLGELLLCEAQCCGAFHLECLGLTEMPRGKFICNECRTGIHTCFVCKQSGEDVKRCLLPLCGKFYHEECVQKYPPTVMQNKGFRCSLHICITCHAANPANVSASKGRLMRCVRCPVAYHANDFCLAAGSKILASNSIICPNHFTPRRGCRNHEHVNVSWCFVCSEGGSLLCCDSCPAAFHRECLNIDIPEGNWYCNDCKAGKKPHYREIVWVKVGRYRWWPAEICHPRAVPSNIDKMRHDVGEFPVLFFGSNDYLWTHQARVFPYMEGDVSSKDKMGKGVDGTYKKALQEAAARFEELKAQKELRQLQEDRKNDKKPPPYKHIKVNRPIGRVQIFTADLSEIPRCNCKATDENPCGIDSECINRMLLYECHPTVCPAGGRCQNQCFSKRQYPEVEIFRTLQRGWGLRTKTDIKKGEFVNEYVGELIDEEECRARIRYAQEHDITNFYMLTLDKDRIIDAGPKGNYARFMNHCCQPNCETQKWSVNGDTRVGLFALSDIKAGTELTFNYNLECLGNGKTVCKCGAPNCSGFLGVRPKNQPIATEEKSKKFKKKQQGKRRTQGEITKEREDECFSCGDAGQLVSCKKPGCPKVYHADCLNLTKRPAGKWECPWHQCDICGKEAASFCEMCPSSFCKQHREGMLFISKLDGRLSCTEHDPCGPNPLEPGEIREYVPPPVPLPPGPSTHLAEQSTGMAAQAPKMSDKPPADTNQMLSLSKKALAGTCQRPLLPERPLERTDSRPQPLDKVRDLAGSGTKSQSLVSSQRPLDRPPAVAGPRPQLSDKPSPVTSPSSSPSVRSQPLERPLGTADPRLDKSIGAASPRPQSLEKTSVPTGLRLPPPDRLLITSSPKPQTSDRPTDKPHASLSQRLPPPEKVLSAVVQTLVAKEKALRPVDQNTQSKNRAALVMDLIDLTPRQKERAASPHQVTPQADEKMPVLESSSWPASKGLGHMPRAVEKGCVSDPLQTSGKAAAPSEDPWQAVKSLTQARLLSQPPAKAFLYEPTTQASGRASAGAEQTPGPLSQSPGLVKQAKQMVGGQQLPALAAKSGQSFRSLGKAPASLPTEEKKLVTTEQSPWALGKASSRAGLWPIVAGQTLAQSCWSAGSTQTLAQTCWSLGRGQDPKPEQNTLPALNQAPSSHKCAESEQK
# [5] = test system: MCF7; experiment: Antiproliferative activity against human MCF7 cells expresses endogenous ER by Cell Titer-Glo based luminescence assay
# [6] = test system: HUVEC; experiment: Cytotoxicity against HUVEC assessed as reduction in cell viability by Cell Titer-Glo based luminescence assay; settings: human
# [7] = test system: MRC5; experiment: Cytotoxicity against human MRC5 cells assessed as reduction in cell viability by Cell Titer-Glo based luminescence assay
# [8] = target: T4, Histone-lysine N-methyltransferase SETD7 (Homo sapiens) (UniProt Q8WTS6); experiment: Inhibition of SET7 in human MCF7 cells assessed as reduction in ERalpha protein expression by Western blot analysis; assay type: cell-based
# T4 sequence (whole entry): T1 sequence (Q8WTS6 whole entry)
# [9] = target: Histone-lysine N-methyltransferase, H3 lysine-79 specific (Homo sapiens) (UniProt Q8TEK3); experiment: Inhibition of DOT1L (unknown origin) at 100 uM
# Histone-lysine N-methyltransferase, H3 lysine-79 specific (Homo sapiens), sequence (Q8TEK3 whole entry, looked up): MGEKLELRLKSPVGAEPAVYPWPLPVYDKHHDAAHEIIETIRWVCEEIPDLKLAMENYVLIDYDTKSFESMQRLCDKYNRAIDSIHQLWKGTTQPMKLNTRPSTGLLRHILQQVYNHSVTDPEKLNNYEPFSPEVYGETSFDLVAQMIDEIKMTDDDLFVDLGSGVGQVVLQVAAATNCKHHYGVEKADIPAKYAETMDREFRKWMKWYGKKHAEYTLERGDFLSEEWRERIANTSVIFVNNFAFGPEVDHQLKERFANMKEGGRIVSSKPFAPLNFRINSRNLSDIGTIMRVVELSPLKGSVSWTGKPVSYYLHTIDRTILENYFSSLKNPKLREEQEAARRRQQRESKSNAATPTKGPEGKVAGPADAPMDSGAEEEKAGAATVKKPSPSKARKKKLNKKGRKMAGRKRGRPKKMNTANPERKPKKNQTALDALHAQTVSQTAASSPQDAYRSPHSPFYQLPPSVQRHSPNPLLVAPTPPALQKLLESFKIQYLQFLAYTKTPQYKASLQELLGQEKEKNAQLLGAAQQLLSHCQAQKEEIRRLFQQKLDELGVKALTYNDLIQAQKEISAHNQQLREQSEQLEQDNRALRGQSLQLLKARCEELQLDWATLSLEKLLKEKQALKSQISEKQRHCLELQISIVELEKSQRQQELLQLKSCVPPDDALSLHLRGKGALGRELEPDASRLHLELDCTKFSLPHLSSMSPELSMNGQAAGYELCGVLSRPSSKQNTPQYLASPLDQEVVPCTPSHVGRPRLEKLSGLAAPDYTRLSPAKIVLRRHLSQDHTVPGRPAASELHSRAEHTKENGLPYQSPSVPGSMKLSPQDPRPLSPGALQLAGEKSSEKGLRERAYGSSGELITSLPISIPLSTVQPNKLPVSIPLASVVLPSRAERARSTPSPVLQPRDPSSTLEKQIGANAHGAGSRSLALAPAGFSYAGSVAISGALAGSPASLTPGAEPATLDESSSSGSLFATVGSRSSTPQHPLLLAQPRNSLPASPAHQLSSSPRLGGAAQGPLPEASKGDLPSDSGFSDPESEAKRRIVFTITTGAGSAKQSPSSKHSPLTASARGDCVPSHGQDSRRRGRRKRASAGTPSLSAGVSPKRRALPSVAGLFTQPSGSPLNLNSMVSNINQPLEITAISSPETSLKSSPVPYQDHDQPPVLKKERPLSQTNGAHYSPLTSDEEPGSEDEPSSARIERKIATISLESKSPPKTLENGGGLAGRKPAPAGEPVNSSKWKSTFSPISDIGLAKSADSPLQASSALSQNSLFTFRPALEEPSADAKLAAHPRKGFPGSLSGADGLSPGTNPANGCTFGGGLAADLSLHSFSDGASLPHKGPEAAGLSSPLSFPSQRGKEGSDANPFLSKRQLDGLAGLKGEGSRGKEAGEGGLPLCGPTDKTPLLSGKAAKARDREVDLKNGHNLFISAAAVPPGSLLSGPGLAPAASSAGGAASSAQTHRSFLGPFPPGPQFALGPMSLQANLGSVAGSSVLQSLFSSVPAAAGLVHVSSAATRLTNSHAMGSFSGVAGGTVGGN
# [10] = target: T5, Histone-lysine N-methyltransferase SUV39H1 (Homo sapiens) (UniProt O43463); experiment: Inhibition of SUV39H1 (unknown origin) at 100 uM
# T5 sequence (whole entry): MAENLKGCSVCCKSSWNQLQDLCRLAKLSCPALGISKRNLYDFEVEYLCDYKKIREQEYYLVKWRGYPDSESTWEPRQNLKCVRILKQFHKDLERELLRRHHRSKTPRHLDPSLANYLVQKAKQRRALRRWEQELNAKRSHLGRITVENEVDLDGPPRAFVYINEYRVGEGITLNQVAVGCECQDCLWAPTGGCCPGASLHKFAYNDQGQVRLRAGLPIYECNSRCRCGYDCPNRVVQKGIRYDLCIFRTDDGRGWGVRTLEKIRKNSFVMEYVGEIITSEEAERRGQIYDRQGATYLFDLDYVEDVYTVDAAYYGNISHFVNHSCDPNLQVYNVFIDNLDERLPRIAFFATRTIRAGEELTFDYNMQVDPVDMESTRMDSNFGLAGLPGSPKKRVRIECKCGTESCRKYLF
# [11] = target: T1, Histone-lysine N-methyltransferase SETD7; experiment: Binding affinity to SET7 (unknown origin) by SPR analysis
# [12] = target: T4, Histone-lysine N-methyltransferase SETD7 (Homo sapiens); experiment: Inhibition of SET7 (unknown origin) at 100 uM
SMILES,IC50 [1],other results
"COC1=CC(=O)c2ccccc2C1=O [2-Methoxy-1,4-naphthoquinone]",> 200 µM,–
CCCCc1ccc(C2=CC(=O)C=CC2=O)cc1,> 200 µM,–
CC(C)(C)OC(=O)N1CCN(C(=O)c2ccc(-c3cccc(C#N)c3)cc2)CC1,> 200 µM,–
CN(C)CCNC(=O)c1ccc(-c2cccc(C#N)c2)cc1,> 200 µM,–
COc1ccc(OC)c(-c2ccc(CN3CCCC3)c(NS(=O)(=O)c3ccccc3)c2)c1,> 200 µM,–
CC(C)c1ccc(C2=CC(=O)C=CC2=O)cc1,> 200 µM,–
N#Cc1cccc(-c2ccc(C(=O)O)cc2)c1,> 200 µM,–
CN(C)CCNC(=O)c1ccc(-c2ccc(C#N)cc2)cc1,> 200 µM,–
O=C1C=CC(=O)C(c2ccc(CN3CCOCC3)c(NS(=O)(=O)c3ccc(C(F)(F)F)cc3)c2)=C1,> 200 µM,–
O=C1C=CC(=O)C(c2ccc(CN3CCOCC3)c(NS(=O)(=O)c3ccc(Cl)cc3)c2)=C1,> 200 µM,–
Cc1ccc(C2=CC(=O)C=CC2=O)cc1,> 200 µM,–
COc1ccc(OC)c(-c2ccc(CN3CCCC3)c([N+](=O)[O-])c2)c1,> 200 µM,–
O=C1C=C(O)C(=O)c2ccccc21 [LAWSONE],> 200 µM,–
COc1ccc(OC)c(-c2ccc(CN3CCCC3)c(N)c2)c1,> 200 µM,–
O=C1C=CC(=O)C(c2ccc(CN3CCCC3)c(NS(=O)(=O)c3ccc(C(F)(F)F)cc3)c2)=C1,> 200 µM,–
O=C1C=CC(=O)C(c2ccc(CN3CCOCC3)c(NS(=O)(=O)c3ccc([N+](=O)[O-])cc3)c2)=C1,> 200 µM,–
N#Cc1cccc(-c2ccc(C(=O)N3CCNCC3)cc2)c1,> 200 µM,–
COc1ccc(OC)c(-c2ccc(CN3CCN(C(=O)OC(C)(C)C)CC3)c(N)c2)c1,> 200 µM,–
CC(C)(C)OC(=O)N1CCN(C(=O)c2ccc(-c3ccc(C#N)cc3)cc2)CC1,> 200 µM,–
COc1ccc(OC)c(-c2ccc(CN3CCOCC3)c(NS(=O)(=O)c3ccccc3)c2)c1,> 200 µM,–
Cc1ccc(C2=CC(=O)C=CC2=O)cc1C,> 200 µM,–
COC(=O)c1ccc(C2=CC(=O)C=CC2=O)o1,15.9 µM,inhibition [2]: inactive; inhibition [3]: inactive; inhibition [4]: inactive; IC50 [5]: 25.8 µM; Activity [6]: Toxic; Activity [7]: Toxic; inhibition [8]: Dose-dependent effect; inhibition [9]: inactive; inhibition [10]: inactive; Kd [11]: 18 µM; inhibition [12]: Active
O=C1C=CC(=O)C(c2ccc(Br)cc2)=C1,> 200 µM,–
COc1ccc(OC)c(-c2ccc(CN3CCN(C(=O)OC(C)(C)C)CC3)cc2)c1,> 200 µM,–
O=C1C=CC(=O)C(c2cccc(C(F)(F)F)c2)=C1,> 200 µM,–
N#Cc1ccc(-c2ccc(C(=O)O)cc2)cc1,> 200 µM,–
